Format in all cases: cell-based
Assay [1] has as its target T1, human S1P5 receptor (S1PR5) (Homo sapiens, UniProt Q9H228).
T1 construct: host or cells: CHO-K1
In words: Intracellular Ca2+ release (method 1), agonist potency and efficacy, S1P5. The note with it: for Emax: maximum effect in % of reference agonist phospho-fingolimod (100%), read-out: hS1P5 EMax; for pEC50: recombinant CHO-K1 cells expressing human S1PR5, aequorin, Gq/i5, Ca2+ release, read-out: S1P5 EC50 range. Summed up:
(§1)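 CHO-K1 cells co-expressing the human S1P receptor, aequorin and Gq/i5 were loaded with Calcium 5 dye (1 h, 37° C), then equilibrated 45 min at RT in HBSS/20 mM Hepes/2.5 mM probenecid/0.1% BSA, pH 7.4. Fluorescence upon serially diluted compound fitted by 4-parameter logistic; EC50 and Emax normalized to phospho-fingolimod (100%).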

Assay [2] addresses T2, human S1P1 receptor (S1PR1) (Homo sapiens, UniProt P21453).
T2 construct: host or cells: CHO-K1
The assay is described as follows: Intracellular Ca2+ release (method 1), agonist potency, S1P1. Particulars: CHO-K1 cells expressing human S1PR1. Summed up:
as §1

For assay [3], the target named is T3, human S1P3 receptor (S1PR3) (Homo sapiens, UniProt Q99500).
T3 construct: host or cells: CHO-K1
T3 sequence (Q99500 whole entry): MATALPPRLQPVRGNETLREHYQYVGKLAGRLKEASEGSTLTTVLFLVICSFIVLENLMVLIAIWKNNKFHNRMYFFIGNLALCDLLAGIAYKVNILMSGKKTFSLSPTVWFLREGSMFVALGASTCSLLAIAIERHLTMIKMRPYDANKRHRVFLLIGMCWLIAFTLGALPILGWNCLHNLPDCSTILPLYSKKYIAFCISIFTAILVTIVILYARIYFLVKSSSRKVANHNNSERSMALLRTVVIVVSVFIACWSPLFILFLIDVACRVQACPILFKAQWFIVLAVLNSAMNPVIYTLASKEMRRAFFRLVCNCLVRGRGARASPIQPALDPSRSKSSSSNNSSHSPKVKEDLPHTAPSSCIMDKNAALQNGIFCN
In words: Intracellular Ca2+ release (method 1), agonist potency, S1P3. Particulars: CHO-K1 cells expressing human S1PR3. The procedure:
Agonistic activity and efficacy of compounds was assessed in recombinant cells using method 1 described below.
Agonist potency and efficacy were assessed by measurement of intracellular Ca^2+ release. Recombinant CHO-K1 cells (Euroscreen, Brussels, Belgium) expressing human S1PR5, S1PR1, S1PR3 or S1PR4 receptors, aequorin, and GTP binding protein Gq/i5 were cultured using a medium containing nutrient mixture F-12 Ham (Sigma-Aldrich) with 10% FBS, and 100 μg/mL gentamicin and equilibrated at 5% CO2.
15,000 cells in 20 μL medium were seeded into Biocoat poly-D-Lysine coated 384 well plates (Becton Dickinson #35-6663) and grown to 95% confluency after 24 h.
Culture medium was replaced by an assay buffer consisting of HBBS with Ca^2+ and Mg^2+ (Invitrogen #14025-050), 20 mmol/L Hepes (Sigma-Aldrich #H-3375), 2.5 mmol/L probenecid (Sigma-Aldrich #P-8761, and 0.1% BSA (Sigma-Aldrich #A-7030) pH 7.4. The Calcium 5 no-wash FLIPR assay kit (Molecular Devices #5000625) was performed as described in the kit instructions. Cells were incubated with Calcium 5 dye for 1 h at 37° C., 5% CO2 in the dark. After 45 min adaptation to RT assessment of agonist stimulation of intracellular Ca^2+ release was performed by addition of test compounds at various concentrations obtained by serial dilution. Phospho-fingolimod was used as positive control and reference agonist (intrinsic activity 100%).
Agonism of test compounds at the human S1Px receptors were characterized by the EC50 values (potencies) deduced from a nonlinear 4 parametric logistic curve fit to the measured fluorescence data after normalization to the lower and upper plateaus of the fitted reference agonist's (phospho-fingolimod)effect curve and by their efficacy (Emax) values represented by their maximum achievable effects in % of the reference agonist's efficacy, which is defined as an Emax of 100%.

Assay [4] addresses T4, human S1P4 receptor (S1PR4) (Homo sapiens, UniProt O95977).
T4 construct: host or cells: CHO-K1
T4 sequence (O95977 1-384): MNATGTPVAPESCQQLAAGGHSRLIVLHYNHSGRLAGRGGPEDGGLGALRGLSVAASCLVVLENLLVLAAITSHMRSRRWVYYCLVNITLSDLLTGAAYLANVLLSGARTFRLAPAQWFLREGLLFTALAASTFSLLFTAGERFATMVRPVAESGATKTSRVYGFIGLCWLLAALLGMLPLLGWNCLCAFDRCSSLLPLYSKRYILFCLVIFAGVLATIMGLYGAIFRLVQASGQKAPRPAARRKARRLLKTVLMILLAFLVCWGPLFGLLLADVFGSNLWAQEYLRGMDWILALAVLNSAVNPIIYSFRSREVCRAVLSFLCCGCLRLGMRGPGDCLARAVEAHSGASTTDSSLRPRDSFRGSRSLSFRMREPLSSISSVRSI
In words: Intracellular Ca2+ release (method 1), agonist potency, S1P4. Particulars: CHO-K1 cells expressing human S1PR4. Summed up:
as §1

For 16 molecules, Emax and EC50 results are on record in patent US20210147381A1, “1,2,3,4-SUBSTITUTED QUINOLINE COMPOUNDS AS SIP MODULATORS” (AbbVie Deutschland GmbH & Co. KG, priority 2017, published 2021).

Molecules are shown by their SMILES. pEC50: −log10 of the molar value. Where a name gives a salt, the structure may show the parent alone.

In general, Emax refers to the maximal effect, on the per cent scale that the assay sets. As usually defined, the pEC50 is the negative decadic logarithm of the EC50, by convention in mol/L.

T1 sequence (Q9H228 whole entry): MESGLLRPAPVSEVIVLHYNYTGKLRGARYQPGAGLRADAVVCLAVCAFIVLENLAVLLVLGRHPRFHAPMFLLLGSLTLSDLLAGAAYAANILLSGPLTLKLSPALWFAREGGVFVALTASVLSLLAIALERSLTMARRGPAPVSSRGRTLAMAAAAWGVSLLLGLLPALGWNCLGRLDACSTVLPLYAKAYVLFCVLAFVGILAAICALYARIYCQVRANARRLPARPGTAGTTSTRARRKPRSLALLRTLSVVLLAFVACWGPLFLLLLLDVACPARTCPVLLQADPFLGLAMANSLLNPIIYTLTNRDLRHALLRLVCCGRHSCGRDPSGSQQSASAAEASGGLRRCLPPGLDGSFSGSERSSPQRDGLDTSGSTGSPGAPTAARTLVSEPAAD
T2 sequence (P21453 whole entry): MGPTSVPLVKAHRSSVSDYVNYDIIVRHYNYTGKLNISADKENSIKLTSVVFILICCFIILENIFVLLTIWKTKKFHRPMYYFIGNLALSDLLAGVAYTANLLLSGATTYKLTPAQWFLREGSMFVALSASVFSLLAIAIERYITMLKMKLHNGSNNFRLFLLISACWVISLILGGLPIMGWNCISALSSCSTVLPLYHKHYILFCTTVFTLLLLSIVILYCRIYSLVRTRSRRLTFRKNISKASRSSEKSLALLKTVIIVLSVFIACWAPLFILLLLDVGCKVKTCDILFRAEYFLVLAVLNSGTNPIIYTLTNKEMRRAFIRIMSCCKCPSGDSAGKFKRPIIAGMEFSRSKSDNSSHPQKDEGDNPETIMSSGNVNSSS

Take `CCc1cccc(Cl)c1COc1ccc2c(c1)C1(CC1)CN(C(C)C(=O)O)C2` (centres unmarked) [Compound 28, 2-(6′-((2-Chloro-6-ethylbenzyl)oxy)-1′H-spiro[cyclopropane-1,4′-isoquinolin]-2′(3′H)-yl)propanoic acid]: the maximum response (Emax) in assay [1] lay within 50 to 100%. Moreover, the negative logarithm of the EC50 (pEC50) in assay [1] is 7.00 to 8.00; in assay [2] (cells given as bound) it was under 6.00; in assay [3], under 6.00; in assay [4], 6.00 to 7.00.

Regarding `CC(C)c1ccc(C#Cc2ccc3c(c2)C2(CC2)CN(CCC(=O)O)C3)cc1` [Compound 31, 3-(6′-((4-isopropylphenyl)ethynyl)-1′H-spiro[cyclopropane-1,4′-isoquinolin]-2′(3′H)-yl)propanoic acid acetic acid salt (1:1)], in assay [1], the Emax was over 100%. Also, the negative-log EC50 (pEC50) in assay [1] is over 8.00; in assay [2], 6.00 to 7.00; in assay [3] it was under 6.00; in assay [4] (cells given as bound), under 6.00.

For `O=C(O)CCN1Cc2ccc(C#Cc3cc(F)cc(F)c3)cc2C2(CC2)C1` [Compound 32, 3-(6′-((3,5-difluorophenyl)ethynyl)-1′H-spiro[cyclopropane-1,4′-isoquinolin]-2′(3′H)-yl)propanoic acid acetic acid salt (1:1)], in assay [1], the Emax was in the range of 50 to 100%. In addition, the pEC50 is over 8.00 in assay [1], under 6.00 in assay [2] (cells given as bound), under 6.00 in assay [3] and 6.00 to 7.00 in assay [4].

In the case of `O=C(O)CCN1Cc2ccc(C#Cc3cccc(Cl)c3)cc2C2(CC2)C1` [Compound 33, 3-(6′-((3-chlorophenyl)ethynyl)-1′H-spiro[cyclopropane-1,4′-isoquinolin]-2′(3′H)-yl)propanoic acid acetic acid salt (1:1)], in assay [1], the Emax is under 50%. The pEC50 was over 8.00 in assay [1], under 6.00 in assay [2] (cells given as bound), under 6.00 in assay [3] and over 8.00 in assay [4].

Regarding `CCOc1ccc(C#Cc2ccc3c(c2)C2(CC2)CN(CCC(=O)O)C3)cc1` [Compound 34, 3-(6′-((4-ethoxyphenyl)ethynyl)-1′H-spiro[cyclopropane-1,4′-isoquinolin]-2′(3′H)-yl)propanoic acid acetic acid salt (1:1)], in assay [1], the Emax was in the range of 50 to 100%. Further, the pEC50 was over 8.00 in assay [1], under 6.00 in assay [2] (cells given as bound), under 6.00 in assay [3] and under 6.00 in assay [4] (cells given as bound).

Take `O=C(O)CCN1Cc2ccc(C#Cc3ccccc3Cl)cc2C2(CC2)C1` [Compound 35, 3-(6′-((2-chlorophenyl)ethynyl)-1′H-spiro[cyclopropane-1,4′-isoquinolin]-2′(3′H)-yl)propanoic acid]: the Emax in assay [1] was 50 to 100%. Moreover, the negative-log EC50 (pEC50) in assay [1] is over 8.00; in assay [2] (cells given as bound) it was under 6.00; in assay [3] it was under 6.00; in assay [4] it was 6.00 to 7.00.

On to `O=C(O)CCN1Cc2ccc(C#Cc3c(F)cccc3F)cc2C2(CC2)C1` [Compound 36, 3-(6′-((2,6-difluorophenyl)ethynyl)-1′H-spiro[cyclopropane-1,4′-isoquinolin]-2′(3′H)-yl)propanoic acid acetic acid salt (1:1)], for which the Emax in assay [1] was 50 to 100%. Further, the negative logarithm of the EC50 (pEC50) in assay [1] was over 8.00; in assay [2] (cells given as bound), under 6.00; in assay [3], under 6.00; in assay [4] it was 6.00 to 7.00.

Turning to `Cc1ccccc1C#Cc1ccc2c(c1)C1(CC1)CN(CCC(=O)O)C2` [Compound 37, 3-(6′-(o-tolylethynyl)-1′H-spiro[cyclopropane-1,4′-isoquinolin]-2′(3′H)-yl)propanoic acid acetic acid salt (1:1)], in assay [1], the Emax fell in the range of 50 to 100%. Besides, the pEC50 is 7.00 to 8.00 in assay [1], under 6.00 in assay [2] (cells given as bound), under 6.00 in assay [3] and 6.00 to 7.00 in assay [4].

Take `O=C(O)CCN1Cc2ccc(C#Cc3ccsc3)cc2C2(CC2)C1` [Compound 38, 3-(6′-(thiophen-3-ylethynyl)-1′H-spiro[cyclopropane-1,4′-isoquinolin]-2′(3′H)-yl)propanoic acid]: the Emax in assay [1] is 50 to 100%. The pEC50 in assay [1] was 7.00 to 8.00; in assay [2] (cells given as bound), under 6.00; in assay [3], under 6.00; in assay [4] (cells given as bound) it was under 6.00.

In the case of `O=C(O)CCN1Cc2ccc(C#Cc3ccccc3)cc2C2(CC2)C1` [Compound 39, 3-(6′-(phenylethynyl)-1′H-spiro[cyclopropane-1,4′-isoquinolin]-2′(3′H)-yl)propanoic acid acetic acid salt (1:1)], in assay [1], the Emax fell in the range of 50 to 100%. In addition, the pEC50 was 6.00 to 7.00 in assay [1], under 6.00 in assay [2] (cells given as bound), under 6.00 in assay [3] and under 6.00 in assay [4] (cells given as bound).

For the molecule `O=C(O)CCN1Cc2ccc(C#Cc3cccc(Cl)n3)cc2C2(CC2)C1` [Compound 40, 3-(6′-((6-chloropyridin-2-yl)ethynyl)-1′H-spiro[cyclopropane-1,4′-isoquinolin]-2′(3′H)-yl)propanoic acid acetic acid salt (1:1)], the Emax in assay [1] lay within 50 to 100%. For the same molecule, the pEC50 in assay [1] was 6.00 to 7.00; in assay [2] (cells given as bound) it was under 6.00; in assay [3] it was under 6.00; in assay [4], 6.00 to 7.00.

In the case of `O=C(O)CCN1Cc2ccc(C#Cc3ccc(F)cc3)cc2C2(CC2)C1` [Compound 41, 3-(6′-((4-fluorophenyl)ethynyl)-1′H-spiro[cyclopropane-1,4′-isoquinolin]-2′(3′H)-yl)propanoic acid acetic acid salt (1:1)], in assay [1], the Emax was under 50%. Besides, the negative logarithm of the EC50 (pEC50) in assay [1] was 5.00 to 6.00; in assay [2] (cells given as bound), under 6.00; in assay [3] it was under 6.00; in assay [4] (cells given as bound), under 6.00.

On to `CCCn1cc(C#Cc2ccc3c(c2)C2(CC2)CN(CCC(=O)O)C3)cn1` [Compound 42, 3-(6′-((1-propyl-1H-pyrazol-4-yl)ethynyl)-1′H-spiro[cyclopropane-1,4′-isoquinolin]-2′(3′H)-yl)propanoic acid acetic acid salt (1:1)], for which the Emax in assay [1] lay in the range of 50 to 100%. In addition, the pEC50 is 5.00 to 6.00 in assay [1], under 6.00 in assay [2] (cells given as bound), under 6.00 in assay [3] and under 6.00 in assay [4] (cells given as bound).

Regarding `Cc1cccnc1C#Cc1ccc2c(c1)C1(CC1)CN(CCC(=O)O)C2` [Compound 43, 3-(6′-((3-methylpyridin-2-yl)ethynyl)-1′H-spiro[cyclopropane-1,4′-isoquinolin]-2′(3′H)-yl)propanoic acid acetic acid salt (1:1)], the Emax in assay [1] is 50 to 100%. Besides, the pEC50 in assay [1] was 5.00 to 6.00; in assay [2] (cells given as bound) it was under 6.00; in assay [3], under 6.00; in assay [4] (cells given as bound) it was under 6.00.

For the molecule `O=C(O)CCCN1Cc2ccc(C#Cc3ccc(OC4CCCC4)cc3)cc2C2(CC2)C1` [Compound 44, 4-(6′-((4-(cyclopentyloxy)phenyl)ethynyl)-1′H-spiro[cyclopropane-1,4′-isoquinolin]-2′(3′H)-yl)butanoic acid], the Emax in assay [1] was over 100%. In addition, the pEC50 in assay [1] was over 8.00; in assay [2], 6.00 to 7.00; in assay [3] it was under 6.00; in assay [4] (cells given as bound), under 6.00.

Regarding `CCOc1ccc(C#Cc2ccc3c(c2)C2(CC2)CN(CCCC(=O)O)C3)cc1F` [Compound 45, 4-(6′-((4-ethoxy-3-fluorophenyl)ethynyl)-1′H-spiro[cyclopropane-1,4′-isoquinolin]-2′(3′H)-yl)butanoic acid], the Emax in assay [1] was 50 to 100%. For the same molecule, the negative-log EC50 (pEC50) was over 8.00 in assay [1], under 6.00 in assay [2] (cells given as bound), under 6.00 in assay [3] and under 6.00 in assay [4] (cells given as bound).
